Laboratory results as given in patent publication US12202815B2, “Selective androgen receptor degrader (SARD) ligands and methods of use thereof” (priority 2018, dated 2025).
Several values for one entry are separate records, joined by “and”; a condition that tells them apart may be missing. Identical values can stand only once. Entries after “also recorded” stand apart in the source; their conditions may differ. Like-named read-outs stand apart in the source and are kept apart here.

Tests used:
[1] = target: T1, AR (Rattus norvegicus, UniProt P15207); conditions: castrated rats, 20 mg/kg for 13 days
T1 sequence (P15207 1-902): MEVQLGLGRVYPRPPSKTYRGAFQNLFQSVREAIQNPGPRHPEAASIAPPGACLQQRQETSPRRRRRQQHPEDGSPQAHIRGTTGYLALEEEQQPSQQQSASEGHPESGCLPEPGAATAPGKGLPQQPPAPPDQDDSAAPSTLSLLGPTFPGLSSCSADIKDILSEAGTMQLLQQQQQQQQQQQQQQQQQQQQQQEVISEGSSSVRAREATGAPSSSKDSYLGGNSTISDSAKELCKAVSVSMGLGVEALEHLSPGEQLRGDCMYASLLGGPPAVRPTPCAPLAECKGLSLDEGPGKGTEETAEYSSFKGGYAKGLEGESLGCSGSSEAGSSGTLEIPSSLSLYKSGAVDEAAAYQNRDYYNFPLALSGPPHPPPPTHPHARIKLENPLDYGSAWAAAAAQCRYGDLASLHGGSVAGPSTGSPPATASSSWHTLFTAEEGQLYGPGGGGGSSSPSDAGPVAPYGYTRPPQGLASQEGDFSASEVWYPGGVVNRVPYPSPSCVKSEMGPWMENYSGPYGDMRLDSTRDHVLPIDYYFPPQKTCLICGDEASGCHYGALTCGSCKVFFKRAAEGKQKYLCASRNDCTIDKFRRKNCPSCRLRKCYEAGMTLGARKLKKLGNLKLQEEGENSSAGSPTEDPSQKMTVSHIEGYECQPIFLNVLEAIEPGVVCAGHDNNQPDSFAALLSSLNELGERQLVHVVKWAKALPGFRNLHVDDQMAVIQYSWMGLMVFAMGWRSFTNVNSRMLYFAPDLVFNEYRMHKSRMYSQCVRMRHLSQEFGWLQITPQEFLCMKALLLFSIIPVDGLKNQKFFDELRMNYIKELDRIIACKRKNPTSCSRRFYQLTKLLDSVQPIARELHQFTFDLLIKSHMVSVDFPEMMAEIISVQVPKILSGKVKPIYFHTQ
Excerpt: One week after castration, the animals were randomized and dosed for 13 days p.o. as indicated below. Dosing solutions were be prepared in 20% DMSO+80% PEG. Body weights were be measured on day 1 and at the time of sacrifice. At sacrifice, prostate and seminal vesicles weights were taken.

[2] = for serum drug level (bioavailability): rats dosed at 20 mg/kg; for Conc. 1065: individual rat serum
[3] = in vivo; conditions: male, Sprague Dawley, rat, 20 mpk
[4] = RLM metabolism half-life; format: in vitro ADME; conditions: rat liver microsomes
Description: (§1) The assay was done in a final volume of 0.5 ml in duplicates (n=2). […] After pre-incubation, reaction was started by addition of 1 mM NADPH (pre-incubated at 37° C.). Incubations were carried out in triplicate and at various time-points (0, 5, 10, 15, 30 and 60 minutes) 100 μl aliquots were removed and quenched with 100 μl of acetonitrile containing internal standard. Samples were vortex mixed and centrifuged at 4000 rpm for 10 minutes. The supernatants were transferred to 96 well plates and submitted for LC-MS/MS analysis. As control, sample incubations done in absence of NADPH were included. From % PCR (% Parent Compound Remaining), rate of compound disappearance is determined (slope) and in vitro CLint (μl/min/mg protein) was calculated.

[5] = format: in vitro ADME; conditions: human liver microsomes
Description: as §1

[6] = Pharmacokinetics in male Sprague Dawley rats (oral 7 days, iv Day 1)
Description: At initial dosing, the animals were 12 weeks of age. The animals were group housed (up to three animals/cage/group) in polycarbonate cages with hardwood chip bedding. […] Water was provided fresh daily, ad libitum. […] As necessary, the 12-hour dark cycle was interrupted to accommodate study procedures. […] Individual doses were calculated based on body weights recorded on Day 1 and Day 7 of dose administration. […] A single intravenous dose was administered via a tail vein and blood sample on Day 1.
Animals were weighed at the time of animal selection and on Day 1 and Day 7 of dose administration.
Centrifugation began within 1 hour of collection. Plasma was placed into 96-well tubes with barcode labels. Plasma was maintained on dry ice prior to storage at approximately −70° C. Drug concentrations were measured by established chromatography/mass spectrometry (LC-MS/MS) methods.

[7] = target: T2, MYLK (Homo sapiens, UniProt Q15746); assay: KINOMEscan competition binding assay; conditions: lower numbers indicate stronger hits
T2 construct: T7 phage fusion or DNA label for qPCR; purchased DiscoveRx
T2 sequence (Q15746 whole entry, the tested form may be a part): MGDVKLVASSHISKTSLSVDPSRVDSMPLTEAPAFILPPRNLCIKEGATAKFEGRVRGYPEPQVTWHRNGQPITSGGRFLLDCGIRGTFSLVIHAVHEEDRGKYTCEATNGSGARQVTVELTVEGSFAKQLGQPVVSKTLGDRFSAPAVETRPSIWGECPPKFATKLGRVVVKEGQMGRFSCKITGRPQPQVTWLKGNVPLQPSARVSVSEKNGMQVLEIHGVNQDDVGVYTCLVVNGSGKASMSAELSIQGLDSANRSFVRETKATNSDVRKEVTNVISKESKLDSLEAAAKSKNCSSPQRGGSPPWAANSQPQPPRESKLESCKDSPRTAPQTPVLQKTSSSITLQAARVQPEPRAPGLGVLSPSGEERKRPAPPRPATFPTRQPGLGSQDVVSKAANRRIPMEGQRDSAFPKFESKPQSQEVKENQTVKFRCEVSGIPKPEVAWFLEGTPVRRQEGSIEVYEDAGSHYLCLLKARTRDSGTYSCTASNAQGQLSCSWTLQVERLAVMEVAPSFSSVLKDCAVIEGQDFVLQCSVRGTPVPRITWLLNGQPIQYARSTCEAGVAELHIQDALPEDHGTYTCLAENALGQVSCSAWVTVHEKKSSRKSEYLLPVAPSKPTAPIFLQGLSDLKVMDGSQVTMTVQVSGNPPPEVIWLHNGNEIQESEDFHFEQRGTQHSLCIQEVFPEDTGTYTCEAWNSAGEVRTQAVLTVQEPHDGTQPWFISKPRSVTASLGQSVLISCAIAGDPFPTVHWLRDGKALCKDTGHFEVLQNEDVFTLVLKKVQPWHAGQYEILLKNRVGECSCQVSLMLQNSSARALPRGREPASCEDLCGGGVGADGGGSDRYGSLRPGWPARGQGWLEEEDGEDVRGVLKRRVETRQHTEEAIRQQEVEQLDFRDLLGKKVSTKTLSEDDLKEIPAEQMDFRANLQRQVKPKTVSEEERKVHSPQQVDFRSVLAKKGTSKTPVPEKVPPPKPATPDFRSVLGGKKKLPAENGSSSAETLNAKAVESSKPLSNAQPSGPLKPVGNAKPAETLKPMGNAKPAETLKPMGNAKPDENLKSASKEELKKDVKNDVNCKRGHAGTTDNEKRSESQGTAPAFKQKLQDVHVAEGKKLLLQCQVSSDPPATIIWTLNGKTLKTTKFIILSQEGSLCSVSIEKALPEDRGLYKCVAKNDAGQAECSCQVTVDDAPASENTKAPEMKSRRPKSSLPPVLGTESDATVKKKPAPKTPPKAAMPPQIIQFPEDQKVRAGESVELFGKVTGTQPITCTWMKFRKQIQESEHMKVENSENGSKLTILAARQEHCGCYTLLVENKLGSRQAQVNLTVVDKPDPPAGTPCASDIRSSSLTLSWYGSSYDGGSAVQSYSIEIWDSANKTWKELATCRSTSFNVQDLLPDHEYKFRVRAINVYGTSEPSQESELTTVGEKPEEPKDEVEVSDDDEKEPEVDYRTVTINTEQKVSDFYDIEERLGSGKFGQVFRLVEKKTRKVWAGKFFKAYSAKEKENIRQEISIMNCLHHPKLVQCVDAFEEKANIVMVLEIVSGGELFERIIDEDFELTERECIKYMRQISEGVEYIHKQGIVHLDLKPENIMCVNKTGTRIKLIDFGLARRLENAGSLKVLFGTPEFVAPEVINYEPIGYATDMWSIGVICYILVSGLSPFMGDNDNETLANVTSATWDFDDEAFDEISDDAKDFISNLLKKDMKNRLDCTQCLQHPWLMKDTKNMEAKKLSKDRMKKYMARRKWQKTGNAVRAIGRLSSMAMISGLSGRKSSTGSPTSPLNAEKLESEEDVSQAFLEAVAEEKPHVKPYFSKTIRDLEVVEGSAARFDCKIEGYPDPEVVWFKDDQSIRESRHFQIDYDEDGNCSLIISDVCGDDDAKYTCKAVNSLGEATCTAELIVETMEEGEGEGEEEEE
Description: (§2) Screening “hits” are identified by measuring the amount of kinase captured in test versus control samples by using a quantitative, precise and ultra-sensitive qPCR method that detects the associated DNA label.
(§3) For most assays, kinase-tagged T7 phage strains were grown in parallel in 24-well blocks in an E. coli host derived from the BL21 strain. […] The lysates were centrifuged (6,000×g) and filtered (0.2 μm) to remove cell debris. The remaining kinases were produced in HEK-293 cells and subsequently tagged with DNA for qPCR detection. […] The liganded beads were blocked with excess biotin and washed with blocking buffer (SeaBlock (Pierce), 1% BSA, 0.05% Tween 20, 1 mM DTT) to remove unbound ligand and to reduce non-specific phage binding. […] Test compounds were prepared as 40× stocks in 100% DMSO and directly diluted into the assay. All reactions were performed in polypropylene 384-well plates in a final volume of 0.02 ml. […] The kinase concentration in the eluates was measured by qPCR.

[8] = target: T3, GSK3A (Homo sapiens, UniProt P49840); assay: KINOMEscan competition binding assay; conditions: lower numbers indicate stronger hits
T3 construct: T7 phage fusion or DNA label for qPCR; purchased DiscoveRx
T3 sequence (P49840 whole entry, the tested form may be a part): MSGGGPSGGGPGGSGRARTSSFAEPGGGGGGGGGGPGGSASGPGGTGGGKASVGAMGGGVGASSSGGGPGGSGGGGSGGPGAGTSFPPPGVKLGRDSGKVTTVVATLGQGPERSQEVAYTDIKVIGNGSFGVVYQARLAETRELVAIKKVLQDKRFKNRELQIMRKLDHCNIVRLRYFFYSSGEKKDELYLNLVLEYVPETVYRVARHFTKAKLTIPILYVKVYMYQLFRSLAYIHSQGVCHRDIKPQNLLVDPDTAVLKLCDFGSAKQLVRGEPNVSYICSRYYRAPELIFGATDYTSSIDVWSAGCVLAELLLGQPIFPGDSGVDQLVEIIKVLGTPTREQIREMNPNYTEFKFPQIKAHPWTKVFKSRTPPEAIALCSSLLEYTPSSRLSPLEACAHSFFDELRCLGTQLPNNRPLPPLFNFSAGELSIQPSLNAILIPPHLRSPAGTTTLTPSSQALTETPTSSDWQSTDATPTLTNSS
Description: as §2, §3

[9] = High dose Hershberger experiment, 7 days oral; format: in vivo, Sprague Dawley rat; conditions: for Body wt. on sac. day / Day 0 body wt.: individual animals
Description: Body weights were recorded on day 0 and day 7 (Table 4B). On day 7, animals were sacrificed and organs were observed.

[10] = test system: >160 GPCR's; assay: gpcrMAX panel, PathHunter beta-arrestin antagonist primary screen; format: cell-based
Description: The assays were performed utilizing the PathHunter beta-arrestin enzyme fragment complementation (EFC) technology.
The PathHunter® β-Arrestin assay monitors the activation of a GPCR in a homogenous, non-imaging assay format using a technology developed by DiscoveRx called Enzyme Fragment Complementation (EFC) with β-galactosidase (β-Gal) as the functional reporter. […] EA is fused to β-Arrestin and ED is fused to the GPCR of interest. When the GPCR is activated and β-Arrestin is recruited to the receptor, ED and EA complementation occurs, restoring β-Gal activity which is measured using chemiluminescent PathHunter® Detection Reagents.
PathHunter cell lines were expanded from freezer. Cells were seeded in a total volume of 20 μL into white walled, 384-well microplates and incubated at 37° C. for the appropriate time prior to testing.
Intermediate dilution of sample stocks was performed to generate 5× sample in assay buffer. […]
Microplates were read following signal generation with a PerkinElmer Envision™ instrument for chemiluminescent signal detection.
Compound activity was analyzed using CBIS data analysis suite (ChemInnovation, CA). For antagonist mode assays, percentage inhibition was calculated using the following formula: % Inhibition=100%×(1−(mean RLU of test sample−mean RLU of vehicle control)/(mean RLU of EC80 control−mean RLU of vehicle control) [where RLU is relative light unit]).

[11] = test system: >450 human kinases and mutant variants; assay: KINOMEscan panel cross-reactivity profile; format: binding; conditions: panel of >460 kinases and mutants
Description: as §2, §3

[12] = test system: MDVR (enzalutamide-resistant VCaP prostate cancer cells); assay: MDVR xenograft in SRG rats, 30 days oral dosing; conditions: rat, in vivo
Description: Male Sprague Dawley Rag2−/−; Il2rg−/− (SRG) rats were housed in group of three rats/cage. They were provided with food and water ad libitum and were maintained in a 12 hour light/dark cycle.
Cell inoculations were carried out in a Class II/A2 biosafety cabinet. The surgical space was cleaned with Clidox® and sterile drapes were placed on the surface. The animals were anesthetized using inhaled isoflurane. Prior to injection, the hind flank was shaved and cleaned with alcohol prep pads. Animals were placed back in their home cage and monitored until they recovered and sternal recumbency was observed.
Cell inoculation: All animals were inoculated with a total volume of 500 μL subcutaneously in the left hind flank. The inoculation suspension consisted of 250 μL of cell suspension mixed with 250 μL of Matrigel, diluted to 10 mg/mL working solution with DMEM, which was mixed on ice immediately by pipetting the cells into the Matrigel using a p1000 micropipette fitted with a sterile aerosol resistant tip prior to injection. The final concentration of Matrigel was 5 mg/mL. […] Each needle/syringe was used for only 1 animal.
SARDs were dissolved at 5-, 10-, or 15 mg/mL in vehicle in a biosafety cabinet using sterile reagents and consumables.
One-way ANOVA and Tukey's post-hoc test were used to compare the difference in percent change in body weight among treatment groups. […]

[13] = Table 9, Group 3, oral 30 mg/kg
[14] = male, Sprague Dawley, rat, in vivo, iv, 5 mg/kg
[15] = male, Sprague Dawley, rat, in vivo, po, 5 mg/kg
[16] = male, Sprague Dawley, rat, in vivo, po, 20 mg/kg
[17] = male, Sprague Dawley, rat, in vivo, po, 30 mg/kg
[18] = male, Sprague Dawley, rat, in vivo, po, 60 mg/kg
[19] = male, Sprague Dawley, rat, in vivo, po, 1 mg/kg/day
[20] = male, Sprague Dawley, rat, in vivo, po, 5 mg/kg/day
[21] = male, Sprague Dawley, rat, in vivo, po, 10 mg/kg/day
[22] = male, Sprague Dawley, rat, in vivo, po, 20 mg/kg/day

C[C@](O)(COc1ccc(C#N)cc1)C(=O)Nc1ccc(C#N)c(C(F)(F)F)c1 [Enobosarm]
SV and VP re-growth, % of intact vehicle [1]: 50-60%
agonist activity in ventral prostate and seminal vesicles (in words) ([1]; 20 mg/kg): partial agonist; also recorded: significant agonism

C[C@](O)(Cn1cc(F)cn1)C(=O)Nc1ccc(C#N)c(C(F)(F)F)c1 [Compound 1002]
serum drug level (bioavailability) [2]: 33 nM
concentration at 30 h [3]: 33 nM
RLM Metebolism (H.L. min) [4]: 78 min
HLM Metabolism (H.L. min) [5]: 82 min
DN AUC0-24 [6, 13]: 2070 (h * ng/mL)/(mg/kg)
DN Cmax [6, 13]: 111 (ng/mL)/(mg/kg)
AUC0-24 [6, 14]: 9580 ng·h/mL
AUC(0-inf) [6, 14]: 9600 ng·h/mL
AUC(0-t) [6, 14]: 9580 ng·h/mL
C0 [6, 14]: 2460 ng/mL
Cmax [6, 14]: 2290 ng/mL
DN AUC0-24 [6, 14]: 1920
Tmax [6, 14]: 0.083 h
Vd [6, 14]: 2.14 L/kg
clearance [6, 14]: 8.68 mL/min/kg
half-life ([6]; male, Sprague Dawley, rat, in vivo, iv, 5 mg/kg, elimination half-life): 2.6 h
half-life ([6]; male, Sprague Dawley, rat, in vivo, iv, 5 mg/kg, t1/2): 2.62 h
AUC0-24 [6, 15]: 6860 ng·h/mL
AUC(0-inf) [6, 15]: 7050 ng·h/mL
AUC(0-t) [6, 15]: 6860 ng·h/mL
Cmax [6, 15]: 526 ng/mL
DN AUC0-24 [6, 15]: 1370
Tmax [6, 15]: 1 h
half-life ([6]; male, Sprague Dawley, rat, in vivo, po, 5 mg/kg, t1/2): 4.87 h
AUC0-t [6, 16]: 37000 ng·h/mL
AUC(0-t) [6, 16]: 37000 ng·h/mL
Cmax [6, 16]: 2620 ng/mL
DN AUC0-24 [6, 16]: 1850
Tmax [6, 16]: 6 h
Cmax [6, 17]: 3330 ng/mL
Tmax [6, 17]: 12 h
AUC0-24 [6, 18]: 77500 ng·h/mL
AUC(0-t) [6, 18]: 77500 ng·h/mL
Cmax [6, 18]: 3800 ng/mL
DN AUC0-24 [6, 18]: 1290
Tmax [6, 18]: 1 h

C[C@](O)(Cn1cc(C#N)cn1)C(=O)Nc1cnc(C#N)c(C(F)(F)F)c1 [Compound 1065, (S)-3-(4-cyano-1H-pyrazol-1-yl)-N-(6-cyano-5-(trifluoromethyl)pyridin-3-yl)-2-hydroxy-2-methylpropanamide]
Conc. 1065 ([2]; 1 mg/kg): 81.58 nM and 87.25 nM and 120.1244 nM and 134.5505 nM and 129.9323 nM
Conc. 1065 ([2]; 5 mg/kg): 967.3936 nM and 798.7984 nM and 630.4879 nM and 691.1901 nM and 485.4264 nM
Conc. 1065 ([2]; 10 mg/kg): 637.641 nM and 915.1312 nM and 824.8076 nM and 681.9936 nM and 795.917 nM
Conc. 1065 ([2]; 20 mg/kg): 1286.902 nM and 1298.179 nM and 1360.687 nM and 1397.834 nM and 1193.986 nM
Serum Conc. ([2]; Table 2, rats 20 mg/kg, 24-30 hours after last dose): 561 nM
Serum Conc. ([2]; Table 3, 20 mg/kg Hershberger): 561 nM
serum drug level (bioavailability) [2]: 561 nM
Percent Control [7]: 45%
Percent Control [8]: 6.4%
gross pathology (in words) ([9]; 100 and 200 mpk, 7 days): no gross pathology
Body wt. on sac. day ([9]; 100 mpk oral 7 days): 475 g and 333 g and 292 g
Day 0 body wt. ([9]; 100 mpk oral 7 days): 404 g and 280 g and 245 g
Body wt. on sac. day ([9]; 200 mpk oral 7 days): 326 g and 313 g and 424 g
Day 0 body wt. ([9]; 200 mpk oral 7 days): 270 g (2×) and 440 g
GPCR cross-reactivity (in words) [10]: no GPCR was inhibited by 50%; also recorded: No GPCR was inhibited by >50%
number of kinases bound (<50% of Percent of Control) [11]: 2
potency vs 1002 in inhibiting enzalutamide-resistant prostate cancer (in words) [12]: approximately two fold more potent than 1002
concentration at 30 h [3]: 561 nM
RLM Metebolism (H.L. min) [4]: 84 min
HLM Metabolism (H.L. min) [5]: STABLE
HLM % metabolized after 60 min ([5]; 60 min): 0%
AUC0-24 [6, 14]: 31800 ng·h/mL
AUC(0-inf) [6, 14]: 40700 ng·h/mL
AUC(0-t) [6, 14]: 31800 ng·h/mL
C0 [6, 14]: 2510 ng/mL
Cmax [6, 14]: 2600 ng/mL
DN AUC0-24 [6, 14]: 6360
Tmax [6, 14]: 0.5 h
Vd [6, 14]: 1.86 L/kg
clearance [6, 14]: 2.05 mL/min/kg
half-life [6, 14]: 10.5 h
AUC(0-t) ([6]; male, Sprague Dawley, rat, in vivo, po, 1 mg/kg): 7300 ng·h/mL
AUC0-24 [6, 19]: 7300 ng·h/mL
AUC(0-t) [6, 19]: 7300 ng·h/mL
Cmax [6, 19]: 458 ng/mL
DN AUC0-24 [6, 19]: 7300
Tmax [6, 19]: 6 h
AUC(0-t) [6, 15]: ~35000 ng·h/mL
AUC0-24 [6, 20]: 34900 ng·h/mL
AUC(0-t) [6, 20]: 34900 ng·h/mL
Cmax [6, 20]: 2220 ng/mL
DN AUC0-24 [6, 20]: 6980
Tmax [6, 20]: 6 h
AUC0-24 [6, 21]: 59500 ng·h/mL
AUC(0-t) [6, 21]: 59500 ng·h/mL
Cmax [6, 21]: 3550 ng/mL
DN AUC0-24 [6, 21]: 5950
Tmax [6, 21]: 6 h
AUC(0-t) [6, 16]: 102000 ng·h/mL
AUC0-24 [6, 22]: 102000 ng·h/mL
AUC(0-t) [6, 22]: 102000 ng·h/mL
Cmax [6, 22]: 5550 ng/mL
DN AUC0-24 [6, 22]: 5120
Tmax [6, 22]: 6 h
